Experimental data published in patent US20170145000A1, “CANAGLIFLOZIN MONOHYDRATE AND ITS CRYSTALLINE FORMS, PREPARATION METHODS AND USES THEREOF” (Hangzhou Pushai Pharmaceutical Technology Co., Ltd., priority 2014, published 2017).

Columns and labels:
Format in all cases: physicochemical
[1] = competitive stability test in water at room temperature with Monohydrate Form HI (XRPD); conditions: equal 250 mg samples of Form HI, known canagliflozin, Form A and Form hH1 mixed with 5 mL water, stirred 7 days
Experimental: The competitive stability test of canagliflozin Monohydrate Form HI of the present invention, the known canagliflozin, canagliflozin hemihydrate Form hH1 and canagliflozin Form A was performed in water at room temperature.
Conditions of the competitive stability test were as follows: take equal quantity (250 mg) samples of canagliflozin Monohydrate Form HI of the present invention, canagliflozin prepared in the preparation example 1, canagliflozin Form A prepared in the preparation example 2 and canagliflozin hemihydrate Form hH1 prepared in the preparation example 3 respectively, mix the samples with 5 mL of water to form a suspension. The suspension was stirred for 7 days at room temperature and then XRPD characterization analysis was performed.

[2] = competitive stability test in water at room temperature with Monohydrate Form HII (XRPD); conditions: equal 250 mg samples of Form HII, known canagliflozin, Form A and Form hH1 mixed with 3 mL water, stirred 7 days
Experimental: The competitive stability test among canagliflozin Monohydrate Form HII of the present invention, the known Canagliflozin, canagliflozin hemihydrate Form hH1 and canagliflozin Form A was performed in water at room temperature.
Conditions of the competitive stability test were as follows: take equal quantity (250 mg) samples of canagliflozin Monohydrate Form HII of the present invention, canagliflozin prepared in the preparation example 1 in the present invention, canagliflozin Form A prepared in the preparation example 2 in the present invention and canagliflozin hemihydrate Form hH1 prepared in the preparation 3 in the present invention, respectively, and mix the samples with 3 mL of water to form a suspension. The suspension was stirred for 7 days at room temperature and then XRPD characterization analysis was performed.

[3] = repetition of prior art forms and test of their properties (stability in water, phase stability); conditions: prior art processes repeated by the inventors; competitive stability test in water
Text: The above properties may lead to problems in their pharmaceutical formulations, including variations in active substance content, poor reproducibility, impurities increasing during storage, efficacy decreasing, and so on. Moreover, the known canagliflozin is amorphous.

[4] = storage in desiccator at room temperature and controlled relative humidity; conditions: room temperature

Compound | crystalline form after competitive stability test in water [1] | crystalline form after competitive stability test in water [2] | stability in water / phase stability of repeated prior art forms [3] | crystalline form after storage ([4]; desiccators, relative humidities from 57% to 75%, continued storage for 4 months) | crystalline form after storage ([4]; desiccator, 10% to 90% RH, 4 months) | crystalline form after storage ([4]; desiccators, relative humidities from 57% to 75%, 1 day)
Cc1ccc([C@@H]2O[C@H](CO)[C@@H](O)[C@H](O)[C@H]2O)cc1Cc1ccc(-c2ccc(F)cc2)s1 [canagliflozin Form A] | transformed to canagliflozin Monohydrate Form HI | transformed to canagliflozin Monohydrate Form HII | not stable in water | – | – | –
Cc1ccc([C@@H]2O[C@H](CO)[C@@H](O)[C@H](O)[C@H]2O)cc1Cc1ccc(-c2ccc(F)cc2)s1 [canagliflozin Monohydrate Form HII] | – | maintained its original crystalline form | – | remained unchanged | – | –
Cc1ccc([C@@H]2O[C@H](CO)[C@@H](O)[C@H](O)[C@H]2O)cc1Cc1ccc(-c2ccc(F)cc2)s1 [canagliflozin Monohydrate Form HI, canagliflozin monohydrate Form HI] | maintained its original crystalline form | – | – | – | remained unchanged | –
Cc1ccc([C@@H]2O[C@H](CO)[C@@H](O)[C@H](O)[C@H]2O)cc1Cc1ccc(-c2ccc(F)cc2)s1 [Cangaliflozin Form B] | – | – | poor phase stability | – | – | –
Cc1ccc([C@@H]2O[C@H](CO)[C@@H](O)[C@H](O)[C@H]2O)cc1Cc1ccc(-c2ccc(F)cc2)s1.O [canagliflozin hemihydrate Form hH1] | transformed to canagliflozin Monohydrate Form HI | transformed to canagliflozin Monohydrate Form HII | poor phase stability | – | – | –
Cc1ccc([C@@H]2O[C@H](CO)[C@@H](O)[C@H](O)[C@H]2O)cc1Cc1ccc(-c2ccc(F)cc2)s1 [known canagliflozin, (1S)-1,5-anhydro-1-[3-[[5-(4-fluorophenyl)-2-thienyl]methyl]-4-methylphenyl]-D-glucitol] | transformed to canagliflozin Monohydrate Form HI | transformed to canagliflozin Monohydrate Form HII | not stable in water | – | – | transformed to canagliflozin Monohydrate Form HII
